From ChEMBL document CHEMBL1201862, “PubChem BioAssay data set” (2004)
Active and inactive are the calls of the source.

Columns and labels:
[1] = Luminescence-based counterscreen assay for KLF5 inhibitors: dose response cell-based high throughput screening assay to identify cytotoxic compounds using the IEC-6 intestinal epithelial cell line. [Related pubchem assays: 1700 (Primary screen.), 1834 (Confirmation screen.), 1858 (Summary AID.), 1905 (Counterscreen.)]; type: functional
[2] = target: Luciferin 4-monooxygenase (Photinus pyralis, UniProt P08659); test: inhibition of purified Photinus pyralis luciferase – biochemical, luminescence, dose response (AID 1891)
Luciferin 4-monooxygenase, sequence (P08659 whole entry): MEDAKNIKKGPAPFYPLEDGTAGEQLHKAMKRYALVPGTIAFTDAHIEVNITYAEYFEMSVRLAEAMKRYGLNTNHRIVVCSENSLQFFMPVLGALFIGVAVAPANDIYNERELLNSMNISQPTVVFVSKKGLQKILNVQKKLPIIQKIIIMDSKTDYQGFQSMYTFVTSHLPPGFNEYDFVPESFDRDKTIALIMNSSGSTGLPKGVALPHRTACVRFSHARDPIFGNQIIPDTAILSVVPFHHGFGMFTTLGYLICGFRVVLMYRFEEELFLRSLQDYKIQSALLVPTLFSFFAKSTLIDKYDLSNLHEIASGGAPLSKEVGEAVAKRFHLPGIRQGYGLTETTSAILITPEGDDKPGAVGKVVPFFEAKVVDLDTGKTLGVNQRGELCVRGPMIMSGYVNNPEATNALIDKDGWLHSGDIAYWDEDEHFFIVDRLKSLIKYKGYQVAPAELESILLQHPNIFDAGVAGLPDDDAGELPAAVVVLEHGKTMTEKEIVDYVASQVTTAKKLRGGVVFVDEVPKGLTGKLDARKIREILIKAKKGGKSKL

[3] = Luminescence Cell-Based Dose Confirmation HTS to Identify Inhibitors of Platelet Dense Granule Release. [Related pubchem assays: 1663 (Primary HTS), 1678 (Summary of Project)]; type: functional
[4] = HEK-293T viability loss after treatment – luminescence, T-cell screen hits, cytotoxicity control for TCR NF-kB inhibitor project, dose response (AID 489026); type: functional, cell-based;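 further: cells exposed to compound about 14 hours before the viability readout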
[5] = target: T1, Heat shock factor protein 1 (Mus musculus, UniProt P38532); test: decrease of HSF1-responsive luciferase luminescence – cell-based, NIH3T3, dose retest, confirmation (AID 2382); type: functional;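 further: NIH3T3 fibroblasts with HSF1-driven luciferase reporter stressed by proteasome inhibitor MG132; luminescence from HSF1-driven luciferase expression after 8 hours of MG132 stress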
T1 sequence (P38532 whole entry): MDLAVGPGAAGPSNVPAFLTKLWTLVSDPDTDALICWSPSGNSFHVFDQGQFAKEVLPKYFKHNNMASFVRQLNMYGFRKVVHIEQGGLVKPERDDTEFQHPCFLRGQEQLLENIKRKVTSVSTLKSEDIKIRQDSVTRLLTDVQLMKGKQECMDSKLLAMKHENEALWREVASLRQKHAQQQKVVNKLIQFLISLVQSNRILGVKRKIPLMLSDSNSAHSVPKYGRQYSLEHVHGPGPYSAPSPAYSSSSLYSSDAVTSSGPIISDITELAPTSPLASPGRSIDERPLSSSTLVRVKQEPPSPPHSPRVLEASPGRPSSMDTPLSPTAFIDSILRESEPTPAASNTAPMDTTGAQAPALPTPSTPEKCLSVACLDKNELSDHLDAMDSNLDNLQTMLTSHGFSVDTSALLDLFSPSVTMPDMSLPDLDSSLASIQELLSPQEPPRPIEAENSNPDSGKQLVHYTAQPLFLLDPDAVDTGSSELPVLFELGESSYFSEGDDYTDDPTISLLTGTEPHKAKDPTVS

[6] = A Cell Based Secondary Assay To Explore Cytotoxicity of Compounds that Sensitize Mycobacterium Tuberculosis to Beta-Lactam Antibiotics.; type: functional
[7] = A549 cell cytotoxicity, dose response, cytotoxicity control, plate reader, cherry-pick, antagonist series (AID 743412); type: functional, cell-based
[8] = toxicity toward HepG2 liver cells – cell-based, plate reader, cherry-pick, antagonist series, cytotoxicity control, dose response (AID 743416); type: functional
[9] = blockers of bursicon-stimulated LGR2 cAMP reporter – cell-based, HEK293, CRE-luciferase reporter, cherry pick, set 2, dose response (AID 743343); type: functional;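 further: transfected cells were stimulated with diluted bursicon conditioned medium after compound addition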
[10] = blockade of melanocortin 4 receptor signaling – cell-based, plate reader, cherry pick, counter-screen for LGR2 antagonist project, dose response (AID 743444); type: functional;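 further: transfected HEK 293 cells stimulated with alpha-MSH peptide; potency of inhibitors of the alpha-MSH evoked signal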
Paired box protein Pax-8 = Paired box protein Pax-8 (Homo sapiens, UniProt Q06710); test: PAX8 transcriptional activity inhibition in RMG-I – RMG-I cells, luciferase, cherry-pick, dose response (AID 687027); type: functional, cell-based;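 further: luciferase reporter driven by Pax8 target thyroperoxidase promoter measured by SteadyGlo luminescence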
Paired box protein Pax-8, sequence (Q06710 whole entry): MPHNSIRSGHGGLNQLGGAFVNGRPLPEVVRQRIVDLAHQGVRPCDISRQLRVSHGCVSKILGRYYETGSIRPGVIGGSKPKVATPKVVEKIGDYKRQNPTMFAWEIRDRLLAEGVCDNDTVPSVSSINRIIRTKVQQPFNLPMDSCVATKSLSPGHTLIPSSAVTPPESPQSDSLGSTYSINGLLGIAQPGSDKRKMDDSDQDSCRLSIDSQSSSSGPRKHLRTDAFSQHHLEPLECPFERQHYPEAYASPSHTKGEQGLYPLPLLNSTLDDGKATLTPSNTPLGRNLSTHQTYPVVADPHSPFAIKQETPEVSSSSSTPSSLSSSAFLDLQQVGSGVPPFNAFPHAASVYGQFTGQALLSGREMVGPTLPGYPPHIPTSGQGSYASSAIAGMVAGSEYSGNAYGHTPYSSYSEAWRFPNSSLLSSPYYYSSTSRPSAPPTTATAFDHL

[11] = target: T2, Microphthalmia-associated transcription factor (Homo sapiens, UniProt O75030); test: reducers of TRPM1 reporter luminescence, concentration series – cell-based, SK-MEL-5, cherry-picked, set 3, MITF inhibitor project, dose response (AID 493073); type: functional;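 further: SK-MEL-5 melanoma cells with luciferase driven by the MITF target TRPM1 promoter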
T2 sequence (O75030 whole entry): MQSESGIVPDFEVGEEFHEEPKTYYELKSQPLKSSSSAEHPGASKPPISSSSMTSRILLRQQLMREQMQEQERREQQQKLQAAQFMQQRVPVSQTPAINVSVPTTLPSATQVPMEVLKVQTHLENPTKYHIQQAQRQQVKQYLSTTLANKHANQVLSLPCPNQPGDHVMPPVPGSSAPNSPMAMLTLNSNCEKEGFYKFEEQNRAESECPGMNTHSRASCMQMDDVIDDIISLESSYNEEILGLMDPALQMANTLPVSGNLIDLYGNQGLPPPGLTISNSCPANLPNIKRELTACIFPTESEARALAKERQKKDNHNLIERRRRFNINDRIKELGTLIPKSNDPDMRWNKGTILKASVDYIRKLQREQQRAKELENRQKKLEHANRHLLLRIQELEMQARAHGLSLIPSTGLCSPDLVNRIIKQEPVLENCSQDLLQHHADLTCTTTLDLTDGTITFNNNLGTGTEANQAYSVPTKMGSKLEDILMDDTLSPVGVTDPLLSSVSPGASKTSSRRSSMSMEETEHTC

[12] = viability loss in HEK293 cells – cell-based, plate reader, cherry-picked samples, cytotoxicity control, dose response (AID 743446); type: functional
NS3 = NS3 (Hepatitis C virus, UniProt A3EZJ3); test: PubChem AID 2173; parameters: species or system Hepacivirus hominis
NS3, sequence (A3EZJ3 whole entry): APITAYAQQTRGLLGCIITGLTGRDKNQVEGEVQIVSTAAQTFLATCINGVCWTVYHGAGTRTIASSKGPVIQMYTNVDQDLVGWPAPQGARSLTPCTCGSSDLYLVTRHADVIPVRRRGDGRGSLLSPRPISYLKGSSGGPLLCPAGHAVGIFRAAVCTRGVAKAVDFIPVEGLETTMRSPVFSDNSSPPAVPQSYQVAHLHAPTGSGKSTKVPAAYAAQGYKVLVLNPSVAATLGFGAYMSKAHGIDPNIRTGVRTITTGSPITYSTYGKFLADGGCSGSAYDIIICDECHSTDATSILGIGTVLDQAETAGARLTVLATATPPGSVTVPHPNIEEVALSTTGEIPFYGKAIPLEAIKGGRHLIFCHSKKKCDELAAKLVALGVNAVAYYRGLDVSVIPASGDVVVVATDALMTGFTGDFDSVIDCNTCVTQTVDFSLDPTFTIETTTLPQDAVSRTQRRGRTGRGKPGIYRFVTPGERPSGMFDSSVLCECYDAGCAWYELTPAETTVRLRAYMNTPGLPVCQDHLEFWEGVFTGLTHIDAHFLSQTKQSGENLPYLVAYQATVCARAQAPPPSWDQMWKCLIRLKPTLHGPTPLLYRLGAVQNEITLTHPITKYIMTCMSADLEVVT

[13] = test system: Streptococcus sp. 'group A'; test: Streptococcus pyogenes SK(-)GAS viability under kanamycin – luminescence, BacTiterGlo, confirmation, counter-screen for streptokinase expression inhibitor project, dose response (AID 1900); type: functional, organism-based
Genome polyprotein = Genome polyprotein (dengue virus type 2, UniProt P29990); test: flavivirus cap methylation enzyme inhibition – biochemical, confirmation dose response, primary screen (AID 588689); type: functional
Genome polyprotein, sequence (P29990 2492-3391 limits assumed): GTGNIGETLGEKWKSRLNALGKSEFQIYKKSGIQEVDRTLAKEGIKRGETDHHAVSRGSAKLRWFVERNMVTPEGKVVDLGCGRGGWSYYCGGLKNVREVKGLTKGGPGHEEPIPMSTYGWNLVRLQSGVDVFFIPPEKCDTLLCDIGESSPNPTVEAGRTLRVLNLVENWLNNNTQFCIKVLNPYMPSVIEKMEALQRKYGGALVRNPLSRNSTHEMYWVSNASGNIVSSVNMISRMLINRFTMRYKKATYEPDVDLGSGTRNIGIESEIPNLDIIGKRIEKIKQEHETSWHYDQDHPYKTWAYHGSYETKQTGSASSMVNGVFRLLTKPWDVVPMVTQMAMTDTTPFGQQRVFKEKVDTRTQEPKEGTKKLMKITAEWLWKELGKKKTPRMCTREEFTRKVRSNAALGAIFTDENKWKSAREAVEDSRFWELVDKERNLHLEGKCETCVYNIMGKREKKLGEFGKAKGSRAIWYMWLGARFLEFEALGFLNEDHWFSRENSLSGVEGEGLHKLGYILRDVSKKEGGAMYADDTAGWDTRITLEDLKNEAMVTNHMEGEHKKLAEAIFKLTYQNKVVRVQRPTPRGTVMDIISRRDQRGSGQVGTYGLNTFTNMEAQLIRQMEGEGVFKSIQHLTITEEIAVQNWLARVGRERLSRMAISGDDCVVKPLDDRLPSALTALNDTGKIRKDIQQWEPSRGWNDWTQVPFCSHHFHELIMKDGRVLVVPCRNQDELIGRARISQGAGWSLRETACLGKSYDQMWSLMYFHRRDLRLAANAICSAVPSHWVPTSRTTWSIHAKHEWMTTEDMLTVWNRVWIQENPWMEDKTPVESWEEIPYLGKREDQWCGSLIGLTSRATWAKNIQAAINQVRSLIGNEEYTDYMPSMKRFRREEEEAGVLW

[14] = target: T3, Replicative DNA helicase DnaB (Mycobacterium tuberculosis, UniProt P9WMR3); test: DnaB intein splicing inhibitors, dose response, biochemical, cell-free fluorescence (AID 449749); type: functional
T3 sequence (P9WMR3 whole entry): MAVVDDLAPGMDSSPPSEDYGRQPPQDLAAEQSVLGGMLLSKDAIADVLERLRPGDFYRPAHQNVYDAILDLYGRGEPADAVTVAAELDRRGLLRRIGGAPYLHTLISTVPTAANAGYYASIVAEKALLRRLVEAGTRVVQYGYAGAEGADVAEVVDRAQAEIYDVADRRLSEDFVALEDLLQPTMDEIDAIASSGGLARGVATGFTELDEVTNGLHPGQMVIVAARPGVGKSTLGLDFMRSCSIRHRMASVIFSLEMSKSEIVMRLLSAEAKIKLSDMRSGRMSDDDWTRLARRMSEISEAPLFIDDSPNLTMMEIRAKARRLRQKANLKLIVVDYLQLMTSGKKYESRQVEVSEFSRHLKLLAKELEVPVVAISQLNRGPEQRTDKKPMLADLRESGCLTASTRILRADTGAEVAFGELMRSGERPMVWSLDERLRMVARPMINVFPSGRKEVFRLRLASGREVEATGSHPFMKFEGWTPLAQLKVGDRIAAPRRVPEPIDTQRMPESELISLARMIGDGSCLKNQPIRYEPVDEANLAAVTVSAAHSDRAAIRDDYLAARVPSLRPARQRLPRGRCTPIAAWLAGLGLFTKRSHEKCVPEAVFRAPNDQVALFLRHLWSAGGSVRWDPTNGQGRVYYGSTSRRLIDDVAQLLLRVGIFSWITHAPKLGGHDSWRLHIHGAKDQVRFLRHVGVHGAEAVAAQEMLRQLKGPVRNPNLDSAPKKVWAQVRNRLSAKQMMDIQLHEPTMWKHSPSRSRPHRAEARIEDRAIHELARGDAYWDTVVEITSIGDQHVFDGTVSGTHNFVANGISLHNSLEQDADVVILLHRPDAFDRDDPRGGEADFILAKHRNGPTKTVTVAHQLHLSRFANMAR

Aminopeptidase N = target: T4, Aminopeptidase N (Plasmodium falciparum FcB1/Columbia, UniProt O96935); test: malaria alanyl aminopeptidase activity blockers – biochemical, fluorogenic H-Leu-NHMec substrate, 1536-well (AID 1445); parameters: species or system Plasmodium falciparum 3D7, 3D7
T4 sequence (O96935 whole entry): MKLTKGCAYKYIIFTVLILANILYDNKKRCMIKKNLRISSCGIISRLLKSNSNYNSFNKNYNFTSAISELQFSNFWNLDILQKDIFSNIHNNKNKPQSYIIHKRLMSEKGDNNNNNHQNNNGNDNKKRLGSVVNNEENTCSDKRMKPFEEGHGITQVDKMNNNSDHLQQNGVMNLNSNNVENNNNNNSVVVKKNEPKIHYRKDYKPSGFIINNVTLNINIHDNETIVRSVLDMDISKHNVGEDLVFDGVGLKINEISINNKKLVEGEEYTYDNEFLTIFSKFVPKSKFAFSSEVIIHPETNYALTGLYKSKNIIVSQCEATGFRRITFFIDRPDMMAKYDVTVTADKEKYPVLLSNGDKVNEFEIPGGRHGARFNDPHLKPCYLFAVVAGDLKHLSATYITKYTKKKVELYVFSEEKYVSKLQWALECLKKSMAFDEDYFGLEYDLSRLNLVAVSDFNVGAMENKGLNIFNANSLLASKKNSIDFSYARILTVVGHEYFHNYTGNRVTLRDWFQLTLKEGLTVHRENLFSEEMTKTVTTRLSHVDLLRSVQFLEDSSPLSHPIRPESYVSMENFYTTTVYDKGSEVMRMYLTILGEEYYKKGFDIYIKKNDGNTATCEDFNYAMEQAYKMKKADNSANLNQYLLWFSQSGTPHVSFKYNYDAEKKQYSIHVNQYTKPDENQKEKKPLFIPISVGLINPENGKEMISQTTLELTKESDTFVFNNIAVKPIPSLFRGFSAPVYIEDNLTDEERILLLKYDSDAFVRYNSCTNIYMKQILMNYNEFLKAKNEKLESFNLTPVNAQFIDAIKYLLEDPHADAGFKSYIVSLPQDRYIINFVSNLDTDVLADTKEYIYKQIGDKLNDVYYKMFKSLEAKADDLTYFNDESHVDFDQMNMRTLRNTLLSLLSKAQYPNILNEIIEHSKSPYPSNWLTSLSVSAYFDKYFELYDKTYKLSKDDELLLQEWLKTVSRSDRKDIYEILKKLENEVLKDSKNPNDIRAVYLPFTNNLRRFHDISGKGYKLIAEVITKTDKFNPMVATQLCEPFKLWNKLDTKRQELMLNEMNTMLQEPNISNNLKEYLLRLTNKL

Protein RecA = target: T5, Protein RecA (Mycobacterium tuberculosis, UniProt P9WHJ3); test: Fluorescence Cell-Free Homogeneous Dose Retest to Identify Inhibitors of RecA-Intein Splicing Activity. [Related pubchem assays (depositor defined):AID2097, AID2223, AID489010, AID492950]; type: functional
T5 sequence (P9WHJ3 whole entry): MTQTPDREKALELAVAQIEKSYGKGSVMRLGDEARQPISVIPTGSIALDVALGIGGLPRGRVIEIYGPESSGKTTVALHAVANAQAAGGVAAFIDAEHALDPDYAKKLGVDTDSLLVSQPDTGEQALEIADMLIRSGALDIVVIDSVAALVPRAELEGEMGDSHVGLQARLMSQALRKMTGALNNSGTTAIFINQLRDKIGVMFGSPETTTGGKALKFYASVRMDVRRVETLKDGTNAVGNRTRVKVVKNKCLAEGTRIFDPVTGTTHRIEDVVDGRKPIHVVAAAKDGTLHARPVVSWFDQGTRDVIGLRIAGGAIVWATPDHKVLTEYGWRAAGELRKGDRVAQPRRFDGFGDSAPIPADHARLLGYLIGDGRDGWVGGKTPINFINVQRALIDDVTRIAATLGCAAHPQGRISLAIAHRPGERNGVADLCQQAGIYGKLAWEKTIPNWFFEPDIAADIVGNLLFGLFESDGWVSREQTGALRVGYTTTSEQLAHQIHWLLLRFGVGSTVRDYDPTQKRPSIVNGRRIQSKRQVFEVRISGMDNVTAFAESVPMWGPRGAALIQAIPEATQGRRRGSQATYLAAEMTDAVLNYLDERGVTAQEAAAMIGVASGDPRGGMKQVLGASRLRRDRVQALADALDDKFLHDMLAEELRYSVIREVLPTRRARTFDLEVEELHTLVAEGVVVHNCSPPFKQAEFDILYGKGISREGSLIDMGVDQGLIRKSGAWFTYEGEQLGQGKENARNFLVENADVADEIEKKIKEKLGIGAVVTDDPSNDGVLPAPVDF

Streptokinase A = target: T6, Streptokinase A (Streptococcus pyogenes serotype M1, UniProt P10520); test: viability-normalized secreted streptokinase activity reduction – plasminogen activation absorbance, OD405, dose response (AID 1914); type: functional, Streptococcus pyogenes M1 GAS;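 further: secreted streptokinase activity via plasminogen activation per viability signal from cell pellet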
T6 sequence (P10520 whole entry): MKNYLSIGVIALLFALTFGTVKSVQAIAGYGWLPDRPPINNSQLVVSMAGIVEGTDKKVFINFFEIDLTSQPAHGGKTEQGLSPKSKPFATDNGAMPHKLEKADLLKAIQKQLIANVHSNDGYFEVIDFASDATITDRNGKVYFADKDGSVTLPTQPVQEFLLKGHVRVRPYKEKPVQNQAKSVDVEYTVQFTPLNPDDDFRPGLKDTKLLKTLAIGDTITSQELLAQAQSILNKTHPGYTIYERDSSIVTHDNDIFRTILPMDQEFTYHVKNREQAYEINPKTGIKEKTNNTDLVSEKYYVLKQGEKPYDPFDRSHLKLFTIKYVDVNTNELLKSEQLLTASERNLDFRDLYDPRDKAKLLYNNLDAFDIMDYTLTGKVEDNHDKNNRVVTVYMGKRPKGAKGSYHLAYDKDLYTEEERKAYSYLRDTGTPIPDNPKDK

Streptococcus = test: GAS UMAA2166 growth inhibition – luminescence, BacTiterGlo, counter-screen for streptokinase expression inhibitor project, dose response (AID 1915); type: functional, organism-based;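 further: potency for reduction of bacterial viability or growth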
[15] = CCR5-tropic HIV-1 fusion blockers – cell-based, CCR5-tropic Env, dose response (AID 2279); type: functional

O=C(Nc1ccc(N2CCCCC2)cc1)c1ccccn1
13.3 µM (not active): IC50 [1]
inactive: IC50 [4] > 80 µM
active: EC50 [2] 1.06 µM | EC50 [3] 1.49 µM | EC50 [5] < 0.16 µM

Cn1nnnc1Sc1ncnc2scc(-c3cccc(F)c3)c12
active: CC50 [6] 17.6 µM | AC50 [7] 7.53 µM | AC50 [8] 6.73 µM | AC50 [9] 6.24 µM | AC50 [10] 12 µM | AC50 (Paired box protein Pax-8) 2.64 µM | AC50 [11] 5.98 µM | AC50 [12] 6.26 µM

NS(=O)(=O)c1ccc2nc(NC(=O)c3ccc4ncsc4c3)sc2c1
32 µM (not active): IC50 (NS3)

O=C(O)c1ccccc1-c1ccccc1C(=O)Nc1ccc(-c2nc3cc(Cl)ccc3o2)cc1
active: EC50 [13] 7.55 µM | IC50 (Genome polyprotein) 54 µM | AC50 [14] 3.18 µM | IC50 (Aminopeptidase N) 32.6 µM | EC50 (Protein RecA) 11.7 µM | EC50 (Streptococcus) 14 µM | IC50 [15] > 50 µM
> 150 µM (not active): EC50 (Streptokinase A)
